In ChEMBL document CHEMBL4011606, “Synthesis and antiplasmodial activity of novel indoleamide derivatives bearing sulfonamide and triazole pharmacophores” (Eur J Med Chem, 2017):

Experiments:
[1] = system: Plasmodium falciparum; experiment: Antiplasmodial activity against chloroquine-sensitive Plasmodium falciparum 3D7 infected in human erythrocytes measured after 72 hrs by SYBR green 1 dye based fluorescence assay; type: functional, cell-based; conditions: 3D7, 72 h
[2] = system: Plasmodium falciparum; experiment: Antiplasmodial activity against chloroquine-resistant Plasmodium falciparum K1 infected in human erythrocytes measured after 72 hrs by SYBR green 1 dye based fluorescence assay; type: functional, cell-based; conditions: K1, 72 h
[3] = Resistance index, ratio of IC50 for chloroquine-resistant Plasmodium falciparum K1 to IC50 for chloroquine-sensitive Plasmodium falciparum 3D7; type: functional
[4] = Cytotoxicity against African green monkey Vero cells measured after 3 days by resazurin dye based fluorescence assay; type: cell-based; conditions: chlorocebus sabaeus
[5] = Selectivity index, ratio of CC50 for African green monkey Vero cells to IC50 for chloroquine-sensitive Plasmodium falciparum 3D7; type: toxicity; conditions: read-out: Ratio CC50/IC50
[6] = Selectivity index, ratio of CC50 for African green monkey Vero cells to IC50 for chloroquine-resistant Plasmodium falciparum K1; type: toxicity; conditions: read-out: Ratio CC50/IC50

| SMILES | IC50 [1] [µM] | IC50 [2] [µM] | Ratio IC50 [3] | CC50 at 72 h [4] [µM] | selectivity ratio [5] | selectivity ratio [6] |
| --- | --- | --- | --- | --- | --- | --- |
| O=C(CCCc1c[nH]c2ccccc12)NC1CCCCCC1 | > 10 | > 10 | > 1 |  |  |  |
| O=C(Cc1c[nH]c2ccccc12)NCc1cn(CC(=O)Nc2ccc(Br)cc2)nn1 | 8.77 | > 10 | > 1.14 |  |  |  |
| O=C(CCCc1cn(S(=O)(=O)c2cccc3ccccc23)c2ccccc12)NC1CCCCCC1 | 4.67 | 3.68 | 0.78 | > 250 | > 53 | > 67 |
| CC(C)(C)c1ccc(S(=O)(=O)n2cc(CCC(=O)NC3CCCCCC3)c3ccccc32)cc1 | 6.24 | 5.76 | 0.92 |  |  |  |
| O=C(CCCc1cn(S(=O)(=O)c2cccs2)c2ccccc12)NC1CCCCCC1 | > 10 | 5.55 | < 0.55 |  |  |  |
| Cc1ccc(NC(=O)Cn2cc(Cn3cc(CCCC(=O)NC45CC6CC(CC(C6)C4)C5)c4ccccc43)nn2)cc1C | > 10 | 2.5 | < 0.25 | > 250 | > 25 | > 100 |
| O=C(CCCc1cn(Cc2ccccc2)c2ccccc12)NC12CC3CC(CC(C3)C1)C2 | 3.6 | 4.2 | 1.16 | > 250 | > 69 | > 59 |
| O=C(CCCc1c[nH]c2ccccc12)NC12CC3CC(CC(C3)C1)C2 | > 10 | > 10 | > 1 |  |  |  |
| Cc1cc(S(=O)(=O)n2cc(CCCC(=O)NC3CCCCCC3)c3ccccc32)c(C)cc1Cl | 2.17 | 2.19 | 1 | > 250 | > 115 | > 114 |
| O=C(CCCc1cn(CCN2CCCCC2)c2ccccc12)NC12CC3CC(CC(C3)C1)C2 | 5.63 | > 10 | > 1.37 |  |  |  |
| O=C(Cn1cc(Cn2cc(CCCC(=O)NC3CCCCCC3)c3ccccc32)nn1)Nc1ccc(F)cc1 | 8.12 | 7.82 | 0.96 |  |  |  |
| O=C(Cc1c[nH]c2ccccc12)NCc1cn(CC(=O)Nc2ccc(F)cc2)nn1 | 5.16 | 7.38 | 1.43 |  |  |  |
| O=C(Cc1c[nH]c2ccccc12)NCc1cn(CC(=O)Nc2ccc(Cl)cc2)nn1 | > 10 | > 10 | > 1 |  |  |  |
| O=C(CCCc1cn(S(=O)(=O)c2ccccc2)c2ccccc12)NC1CCCCCC1 | 7.37 | 6.06 | 0.82 |  |  |  |
| CC(C)(C)c1ccc(S(=O)(=O)n2cc(CCCC(=O)NC34CC5CC(CC(C5)C3)C4)c3ccccc32)cc1 | 1.87 | 1.69 | 0.9 | > 250 | > 133 | > 147 |
| CC(C)(C)c1ccc(S(=O)(=O)n2cc(CCCC(=O)NC3CCCCCC3)c3ccccc32)cc1 | 2 | 1.6 | 0.8 | > 250 | > 125 | > 156 |
| O=C(CCCc1cn(Cc2ccc(Cl)cc2)c2ccccc12)NC12CC3CC(CC(C3)C1)C2 | 3.4 | 5.3 | 1.55 | > 250 | > 73 | > 47 |
| O=C(Cn1cc(Cn2cc(CCCC(=O)NC34CC5CC(CC(C5)C3)C4)c3ccccc32)nn1)Nc1ccc(Br)cc1 | > 10 | 8.78 | < 0.87 |  |  |  |
| O=C(CCCc1cn(Cc2cn(Cc3ccccc3)nn2)c2ccccc12)NC1CCCCCC1 | > 10 | > 10 | > 1 |  |  |  |
| O=C(Cn1cc(Cn2cc(CCCC(=O)NC34CC5CC(CC(C5)C3)C4)c3ccccc32)nn1)Nc1ccc(Cl)cc1 | > 10 | > 10 | > 1 |  |  |  |
| O=C(Cn1cc(Cn2cc(CCCC(=O)NC3CCCCCC3)c3ccccc32)nn1)Nc1ccc(Br)cc1 | > 10 | 8.7 | < 0.87 |  |  |  |

| SMILES | IC50 [1] [µM] | IC50 [2] [µM] | Ratio IC50 [3] | CC50 at 72 h [4] [µM] | selectivity ratio [5] | selectivity ratio [6] |
| --- | --- | --- | --- | --- | --- | --- |
| O=C(Cn1cc(Cn2cc(CCCC(=O)NC34CC5CC(CC(C5)C3)C4)c3ccccc32)nn1)Nc1ccc(I)cc1 | > 10 | > 10 | > 1 |  |  |  |
| O=C(Cn1cc(Cn2cc(CCCC(=O)NC3CCCCCC3)c3ccccc32)nn1)Nc1ccc(F)c(Cl)c1 | 9.9 | 8.64 | 0.87 |  |  |  |
| O=C(CCCc1cn(Cc2ccc(Br)cc2)c2ccccc12)NC1CCCCCC1 | > 10 | > 10 | > 1 |  |  |  |
| Cn1cc(CCCC(=O)NC2CCCCCC2)c2ccccc21 | > 10 | > 10 | > 1 |  |  |  |
| CC(C)(C)c1ccc(S(=O)(=O)n2cc(CCC(=O)NC34CC5CC(CC(C5)C3)C4)c3ccccc32)cc1 | 5.8 | 6.19 | 1.06 |  |  |  |
| O=C(Cc1c[nH]c2ccccc12)NCc1cn(CC(=O)Nc2ccc(F)c(Cl)c2)nn1 | > 10 | > 10 | > 1 |  |  |  |
| O=C(Cn1cc(Cn2cc(CCCC(=O)NC3CCCCCC3)c3ccccc32)nn1)Nc1ccc(Cl)cc1 | > 10 | > 10 | > 1 |  |  |  |
| O=C(Cn1cc(Cn2cc(CCCC(=O)NC3CCCCCC3)c3ccccc32)nn1)Nc1ccc(I)cc1 | > 10 | > 10 | > 1 |  |  |  |
| O=C(Cc1c[nH]c2ccccc12)NCc1cn(CC(=O)Nc2ccccc2Cl)nn1 | > 10 | > 10 | > 1 |  |  |  |
| O=C(Cn1cc(Cn2cc(CCCC(=O)NC34CC5CC(CC(C5)C3)C4)c3ccccc32)nn1)Nc1ccc(F)cc1 | > 10 | 8.68 | < 0.86 |  |  |  |
| CCCn1cc(CCCC(=O)NC23CC4CC(CC(C4)C2)C3)c2ccccc21 | 4.79 | 7.37 | 1.53 |  |  |  |
| C=CCn1cc(CCCC(=O)NC23CC4CC(CC(C4)C2)C3)c2ccccc21 | 5.04 | 7.56 | 1.5 |  |  |  |
| C=CCn1cc(CCCC(=O)NC2CCCCCC2)c2ccccc21 | > 10 | > 10 | > 1 |  |  |  |
| Cc1ccc(NC(=O)Cn2cc(Cn3cc(CCCC(=O)NC4CCCCCC4)c4ccccc43)nn2)cc1C | > 10 | > 10 | > 1 |  |  |  |
| CCN(CC)CCCC(C)Nc1ccnc2cc(Cl)ccc12 (stereo not given) [CHLOROQUINE] |  |  |  | 226 |  |  |
| Cc1ccc(NC(=O)Cn2cc(CNC(=O)Cc3c[nH]c4ccccc34)nn2)cc1C | 7.02 | 6.46 | 0.87 |  |  |  |
| O=C(CCCc1cn(CCN2CCCC2)c2ccccc12)NC12CC3CC(CC(C3)C1)C2 | 7.03 | 9.67 | 1.37 |  |  |  |
| O=C(CCCc1cn(Cc2ccccc2)c2ccccc12)NC1CCCCCC1 | 9.56 | > 10 | > 1.04 |  |  |  |
| O=C(Cn1cc(Cn2cc(CCCC(=O)NC3CCCCCC3)c3ccccc32)nn1)Nc1ccccc1Cl | > 10 | > 10 | > 1 |  |  |  |
| O=C(CCCc1cn(Cc2ccc(Cl)cc2)c2ccccc12)NC1CCCCCC1 | > 10 | > 10 | > 1 |  |  |  |
| Cn1cc(CCCC(=O)NC23CC4CC(CC(C4)C2)C3)c2ccccc21 | 9.73 | > 10 | > 1.02 |  |  |  |
